Experimental data reported in patent publication EP0624575A1, “Substituted indoles and pharmaceutical compositions containing them” (ADIR ET COMPAGNIE, priority 1993, dated 1994).

Assays:
[1] = test system: granulocytes de lapins; test: Anti-inflammatory activity: leukotriene B4 release from A 23187-stimulated granulocytes (RIA); type: cell-based; settings: stimulation by calcium ionophore A 23187, mean of 3 independent measurements, versus control, read-out: pouvoir inhibiteur (leucotriènes B₄ libérés)
Description: Les mesures sont réalisées sur granulocytes de lapins. Les granulocytes isolés sont stimulés in vitro par l'ionophore calcique (A 23187). Les leucotriènes B₄ libérés dans le milieu extracellulaire sont mesurés par Radio Immuno Assay (RIA). Les résultats (moyennes de 3 mesures indépendantes) sont exprimés en pourcentage d'inhibition par rapport au témoin.

[2] = test system: agrégation plaquettaire (plasma de lapin enrichi en plaquettes); test: Anti-aggregant activity: platelet aggregation induced by sodium arachidonate; type: cell-based; settings: aggregation induced by arachidonate de sodium (50 µg/ml); rabbit platelet-rich plasma; read-out: concentration minimale active
Method: Dans cette étude, les composés de l'invention (100 µg/ml) ont été testés dans le but de quantifier leur pouvoir d'inhibition du maximum non-réversible d'agrégation plaquettaire (plasma de lapin enrichi en plaquettes) induite par l'arachidonate de sodium (50 µg/ml). Ainsi, la concentration minimale active pour le composé de l'exemple 17 est de 30 µM.

[3] = test system: homogénats de cerveaux de rats; test: Induced lipid peroxidation (Fe2+ - ascorbate) in rat brain homogenates (MDA); type: biochemical; settings: ratio versus probucol, induced peroxidation (Fe²⁺ - ascorbate)
Method: L'action des composés utilisés selon l'invention, susceptibles de piéger les radicaux ·OH, a été étudiée d'une part, sur la peroxydation spontanée des lipides et d'autre part, sur la peroxydation induite par le système Fe²⁺ - ascorbate (10 µM - 250 µM), et ce, sur des homogénats de cerveaux de rats.
Lors de la mesure de la peroxydation lipidique spontanée, les homogénats de cerveau de rats sont placés en présence ou en absence des composés à tester durant 60 minutes à 37°C. La réaction est arrêtée à 0°C et le dosage du malondialdéhyde est effectué à l'aide d'acide thiobarbiturique. La peroxydation lipidique est déterminée par les substances réagissant avec l'acide thiobarbiturique exprimées en nanomoles de malondialdéhyde (MDA). Les concentrations des composés testés inhibant de 50 % la peroxydation du substrat sont calculées. Il est apparu que les composés de formule (I) utilisés selon l'invention possèdent une activité antiperoxydante particulièrement intense puisqu'ils possèdent une activité antiperoxydante nettement plus importante que le probucol et la vitamine E, qui est l'antioxydant naturel de l'organisme humain.
Lors de la mesure de la peroxydation lipidique induite, la méthodologie est identique à celle précédemment décrite à l'exception de l'addition à l'homogénat du système inducteur de radicaux : Fe²⁺ - ascorbate. […]

[4] = test system: LDL natives; test: Protection against LDL oxidation (Cu2+ system, 24 h incubation, FPLC analysis); type: biochemical; settings: 10⁻⁵ M, 24 h incubation with native LDL and Cu²⁺ system, compared with probucol
Method: La capacité des composés de l'invention à diminuer les proportions de LDL oxydées a été mesurée de la façon suivante : on réalise une incubation de 24 heures regroupant des LDL natives, un système Cu²⁺ générateur de radicaux libres et les composés à tester. Les résultats sont obtenus après analyse du milieu par une technique chromatographique haute performance : la FPLC (Fast Protein Liquid Chromatography). Le pouvoir protecteur du composé testé est déterminé après comparaison du chromatogramme obtenu avec celui du témoin positif de référence : le probucol. Il apparaît clairement que les composés de l'invention ont un pouvoir protecteur très important. A titre de comparaison, pour une concentration de 10⁻⁵ M, le niveau de protection obtenu pour les composés de l'invention dépasse celui du probucol.

Compound `CCCCN(C(=O)c1cc2cc(O)ccc2n1C)c1ccccc1` [exemple 17, N-(n-Butyl)-N-phényl-(5-hydroxy-1-méthylindol-2-yl)carboxamide] has an inhibition at 10 µM [1] of 51%, a minimal effective concentration [2] of 30 µM and a Ratio probucol [3] of 6. For the same compound, the “pouvoir protecteur vis-à-vis d'un système oxydant des LDL” value [4] was “pratiquement total”.
